Laboratory results as given in the NIST ThermoML archive (doi:10.1021/je300584m).
Values joined by “and” are separate entries in the source; they are usually repeats but may differ in a detail not shown here. Equal values may be shown once. ± gives the expanded uncertainty stated by the source.

What was measured:
[1] = Molar enthalpy of transition or fusion; details: Crystal; DSC

OC1c2ccccc2-c2ccccc21 [9H-fluoren-9-ol]
vapor or sublimation pressure (337.16 K, Crystal, Calculated from knudsen effusion weight loss): 0.000106 ± 2e-05 kPa | vapor or sublimation pressure (339.13 K, Crystal, Calculated from knudsen effusion weight loss): 0.000132 ± 2.1e-05 kPa | vapor or sublimation pressure (341.1 K, Crystal, Calculated from knudsen effusion weight loss): 0.000163 ± 2.1e-05 kPa | vapor or sublimation pressure (343.16 K, Crystal, Calculated from knudsen effusion weight loss): 0.000196 ± 2.1e-05 kPa | vapor or sublimation pressure (345.09 K, Crystal, Calculated from knudsen effusion weight loss): 0.000243 ± 2.2e-05 kPa | vapor or sublimation pressure (347.09 K, Crystal, Calculated from knudsen effusion weight loss): 0.000307 ± 2.3e-05 kPa | vapor or sublimation pressure (349.15 K, Crystal, Calculated from knudsen effusion weight loss): 0.000385 ± 2.4e-05 kPa | vapor or sublimation pressure (350.76 K, Crystal, Closed cell (Static) method): 0.00051 ± 0.00012 kPa | vapor or sublimation pressure (351.11 K, Crystal, Calculated from knudsen effusion weight loss): 0.00047 ± 2.6e-05 kPa | vapor or sublimation pressure (352.75 K, Crystal, Closed cell (Static) method): 0.00062 ± 0.00012 kPa | vapor or sublimation pressure (353.11 K, Crystal, Calculated from knudsen effusion weight loss): 0.000579 ± 2.9e-05 kPa | vapor or sublimation pressure (354.71 K, Crystal, Closed cell (Static) method): 0.00075 ± 0.00012 kPa | vapor or sublimation pressure (355.1 K, Crystal, Calculated from knudsen effusion weight loss): 0.00071 ± 3.2e-05 kPa | vapor or sublimation pressure (356.59 K, Crystal, Closed cell (Static) method): 0.00092 ± 0.00013 kPa | vapor or sublimation pressure (357.09 K, Crystal, Calculated from knudsen effusion weight loss): 0.000884 ± 3.7e-05 kPa | vapor or sublimation pressure (358.67 K, Crystal, Closed cell (Static) method): 0.00113 ± 0.00013 kPa | vapor or sublimation pressure (359.09 K, Crystal, Calculated from knudsen effusion weight loss): 0.001078 ± 8.5e-05 kPa | vapor or sublimation pressure (360.98 K, Crystal, Closed cell (Static) method): 0.00139 ± 0.00013 kPa | vapor or sublimation pressure (362.63 K, Crystal, Closed cell (Static) method): 0.00165 ± 0.00014 kPa | vapor or sublimation pressure (364.58 K, Crystal, Closed cell (Static) method): 0.00198 ± 0.00015 kPa | vapor or sublimation pressure (366.55 K, Crystal, Closed cell (Static) method): 0.00238 ± 0.00016 kPa | vapor or sublimation pressure (368.53 K, Crystal, Closed cell (Static) method): 0.0029 ± 0.00017 kPa | vapor or sublimation pressure (370.51 K, Crystal, Closed cell (Static) method): 0.00343 ± 0.00018 kPa | vapor or sublimation pressure (372.48 K, Crystal, Closed cell (Static) method): 0.00418 ± 0.00021 kPa | vapor or sublimation pressure (372.51 K, Crystal, Closed cell (Static) method): 0.00419 ± 0.00021 kPa | vapor or sublimation pressure (374.53 K, Crystal, Closed cell (Static) method): 0.00504 ± 0.00024 kPa | vapor or sublimation pressure (376.49 K, Crystal, Closed cell (Static) method): 0.00599 ± 0.00027 kPa | vapor or sublimation pressure (378.48 K, Crystal, Closed cell (Static) method): 0.00711 ± 0.00031 kPa | vapor or sublimation pressure (380.44 K, Crystal, Closed cell (Static) method): 0.00855 ± 0.00036 kPa | vapor or sublimation pressure (382.39 K, Crystal, Closed cell (Static) method): 0.01001 ± 0.00041 kPa | vapor or sublimation pressure (384.38 K, Crystal, Closed cell (Static) method): 0.01183 ± 0.00048 kPa | vapor or sublimation pressure (386.35 K, Crystal, Closed cell (Static) method): 0.01393 ± 0.00053 kPa | vapor or sublimation pressure (388.32 K, Crystal, Closed cell (Static) method): 0.01662 ± 0.00058 kPa | vapor or sublimation pressure (390.28 K, Crystal, Closed cell (Static) method): 0.0195 ± 0.00062 kPa | vapor or sublimation pressure (392.27 K, Crystal, Closed cell (Static) method): 0.02263 ± 0.00067 kPa | vapor or sublimation pressure (394.22 K, Crystal, Closed cell (Static) method): 0.02684 ± 0.00073 kPa | vapor or sublimation pressure (396.22 K, Crystal, Closed cell (Static) method): 0.03155 ± 0.0008 kPa | vapor or sublimation pressure (398.16 K, Crystal, Closed cell (Static) method): 0.03678 ± 0.00088 kPa | vapor or sublimation pressure (400.1 K, Crystal, Closed cell (Static) method): 0.04277 ± 0.00098 kPa | vapor or sublimation pressure (402.11 K, Crystal, Closed cell (Static) method): 0.05007 ± 0.0011 kPa | vapor or sublimation pressure (404.04 K, Crystal, Closed cell (Static) method): 0.05782 ± 0.0012 kPa | vapor or sublimation pressure (406.06 K, Crystal, Closed cell (Static) method): 0.06738 ± 0.0014 kPa | vapor or sublimation pressure (407.96 K, Crystal, Closed cell (Static) method): 0.07784 ± 0.0015 kPa | vapor or sublimation pressure (409.98 K, Liquid, Closed cell (Static) method): 0.1186 ± 0.0021 kPa | vapor or sublimation pressure (410 K, Crystal, Closed cell (Static) method): 0.09038 ± 0.0017 kPa | vapor or sublimation pressure (411.89 K, Crystal, Closed cell (Static) method): 0.104 ± 0.0019 kPa | vapor or sublimation pressure (411.93 K, Liquid, Closed cell (Static) method): 0.1331 ± 0.0021 kPa | vapor or sublimation pressure (413.86 K, Crystal, Closed cell (Static) method): 0.1211 ± 0.0022 kPa | vapor or sublimation pressure (413.91 K, Liquid, Closed cell (Static) method): 0.15 ± 0.0022 kPa | vapor or sublimation pressure (415.85 K, Crystal, Closed cell (Static) method): 0.1377 ± 0.0021 kPa | vapor or sublimation pressure (415.88 K, Liquid, Closed cell (Static) method): 0.1652 ± 0.0023 kPa | vapor or sublimation pressure (417.82 K, Crystal, Closed cell (Static) method): 0.1592 ± 0.0023 kPa | vapor or sublimation pressure (417.86 K, Liquid, Closed cell (Static) method): 0.1822 ± 0.0025 kPa | vapor or sublimation pressure (419.78 K, Crystal, Closed cell (Static) method): 0.1848 ± 0.0025 kPa | vapor or sublimation pressure (419.81 K, Liquid, Closed cell (Static) method): 0.2047 ± 0.0027 kPa | vapor or sublimation pressure (421.73 K, Crystal, Closed cell (Static) method): 0.2084 ± 0.0027 kPa | vapor or sublimation pressure (421.79 K, Liquid, Closed cell (Static) method): 0.2266 ± 0.0029 kPa | vapor or sublimation pressure (423.71 K, Crystal, Closed cell (Static) method): 0.2411 ± 0.003 kPa | vapor or sublimation pressure (423.75 K, Liquid, Closed cell (Static) method): 0.2538 ± 0.0031 kPa | vapor or sublimation pressure (425.74 K, Liquid, Closed cell (Static) method): 0.2828 ± 0.0034 kPa | vapor or sublimation pressure (427.7 K, Liquid, Closed cell (Static) method): 0.3131 ± 0.0036 kPa and 0.3096 ± 0.0036 kPa | vapor or sublimation pressure (429.67 K, Liquid, Closed cell (Static) method): 0.3457 ± 0.0039 kPa | vapor or sublimation pressure (431.58 K, Liquid, Closed cell (Static) method): 0.3815 ± 0.0042 kPa | vapor or sublimation pressure (431.6 K, Liquid, Closed cell (Static) method): 0.3843 ± 0.0042 kPa | vapor or sublimation pressure (433.57 K, Liquid, Closed cell (Static) method): 0.4239 ± 0.0046 kPa | vapor or sublimation pressure (435.51 K, Liquid, Closed cell (Static) method): 0.4605 ± 0.0049 kPa | vapor or sublimation pressure (435.52 K, Liquid, Closed cell (Static) method): 0.4642 ± 0.0049 kPa | vapor or sublimation pressure (437.51 K, Liquid, Closed cell (Static) method): 0.5099 ± 0.0053 kPa | vapor or sublimation pressure (439.47 K, Liquid, Closed cell (Static) method): 0.5625 ± 0.0058 kPa | vapor or sublimation pressure (441.42 K, Liquid, Closed cell (Static) method): 0.615 ± 0.0062 kPa | Normal melting temperature (Crystal, DTA): 155.6 ± 0.39 °C | Molar enthalpy of transition or fusion [1]: 5.78 ± 0.359 kcal/mol
